Source: patent publication US6770649B2, “1-[1-(hetero)aryl-1-perhydroxyalkylmethyl]-piperazine compounds, process for their preparation and pharmaceutical compositions containing them” (Solvay Pharmaceuticals GmbH, priority 2001, dated 2004)
Where two headings read alike, the source gives them in different places.

Tests used:
human NK-2 receptor = molecular target: T1, human NK-2 receptor (Homo sapiens, UniProt P21452); assay: Binding power of the test substances to NK-2 receptors in vitro ([3H]-SR 48968 displacement, CHO cell membranes); settings: displacement of [3H]-SR 48968, 90 min incubation, average of at least three measurements, 10^-6 to 10^-10 mol/l, read-out: pKi, affinity to human NK-2 receptors (converted)
T1 construct: expressed in transfected cells; host or cells: CHO cells (membrane preparation)
T1 sequence (P21452 1-398): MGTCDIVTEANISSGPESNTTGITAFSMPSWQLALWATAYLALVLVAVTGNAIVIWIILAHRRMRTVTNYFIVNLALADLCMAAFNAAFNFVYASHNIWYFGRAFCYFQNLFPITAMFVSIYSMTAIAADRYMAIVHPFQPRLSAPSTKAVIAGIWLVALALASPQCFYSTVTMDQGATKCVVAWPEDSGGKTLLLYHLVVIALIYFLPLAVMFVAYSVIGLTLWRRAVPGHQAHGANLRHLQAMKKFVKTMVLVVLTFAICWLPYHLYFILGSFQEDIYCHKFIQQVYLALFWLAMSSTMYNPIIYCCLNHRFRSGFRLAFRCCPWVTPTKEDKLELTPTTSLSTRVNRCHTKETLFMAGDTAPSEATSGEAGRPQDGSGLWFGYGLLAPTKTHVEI
Protocol: 1. Determination of the Binding Power of the Test Substances to NK-2 Receptors in vitro
The affinity of the test substances to human NK-2 receptors was measured in vitro. The ability of the test substances to displace the selective NK-2 receptor antagonist SR 48968 (=saredutant) used as reference ligand from its corresponding bond was determined.
The receptor binding studies were carried out with radioactively marked [^3H]-SR 48968 (from Amersham) as ligand. For the binding test, different samples of a membrane preparation of CHO cells (=[…]), which express the human NK-2 receptor (for preparation, see N. P. Gerard et al., Journal of Biological Chemistry 265/33 (1990) 20455-20462), were incubated for 90 minutes (=min.) with a solution of the marked ligand, with the incubation mixtures containing no test substance or additions of different concentrations of test substance. Then in each case the membrane-bound ligands in the samples were separated from free ligands by filtration. The fraction remaining in the filter was washed several times with buffer solution, before its radioactivity was measured using a liquid scintillation counter. That concentration which effects half-maximum displacement of the bound reference ligand was determined as IC50 of the respective test substance. The inhibition constant (Ki value) of the test substance was calculated from the respective IC50 value, and was stated as the negative logarithmised value thereof (pKi).
For the compounds of Examples 1 to 39, the affinity to human NK-2 receptors was determined in each case by at least three measurements of the test substances in concentration series of 10^−6 to 10^−10 mol/l. If several measurements were performed, the average thereof was listed each time.

NK-2 receptors [1] = molecular target: T2, NK-2 receptors (Cavia porcellus, UniProt Q64077); assay: Functional NK-2 antagonism on isolated guinea pig gall-bladder preparations (NKA-induced contraction); type: cell-based; settings: inhibition of contraction caused by NKA 0.1 μmol/l; two hours' incubation; Pirbright-White guinea pig gall-bladder
T2 construct: the NK-2 receptors present in the gall-bladder preparations; from tissue; host or cells: Pirbright-White guinea pig: isolated gall-bladder (A2); anaesthetised whole animal (A3)
T2 sequence (Q64077 1-402): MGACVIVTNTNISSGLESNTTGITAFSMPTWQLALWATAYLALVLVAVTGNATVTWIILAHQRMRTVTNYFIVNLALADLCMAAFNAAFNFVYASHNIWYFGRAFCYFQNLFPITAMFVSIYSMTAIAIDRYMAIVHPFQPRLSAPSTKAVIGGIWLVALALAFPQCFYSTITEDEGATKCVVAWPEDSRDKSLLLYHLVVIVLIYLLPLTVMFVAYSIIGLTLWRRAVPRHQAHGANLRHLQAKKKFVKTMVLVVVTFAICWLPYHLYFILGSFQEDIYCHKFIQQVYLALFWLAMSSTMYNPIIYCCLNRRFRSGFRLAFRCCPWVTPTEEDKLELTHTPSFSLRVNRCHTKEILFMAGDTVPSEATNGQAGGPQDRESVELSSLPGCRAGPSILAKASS
Protocol: 2. Determination of the Functional Antagonism of the Test Substances on Isolated Guinea Pig Tissue in vitro
The NK-2 receptor-antagonising action of the test substances was determined on isolated gall-bladder preparations from Pirbright-White guinea pigs, held in an oxygen-saturated nutrient solution. To this end, the preparations were fastened on one hand in the nutrient solution to organ holders and on the other hand on a force meter by a thread.
In this test the NK-2 receptors present in the gall-bladder preparations were stimulated with the natural NK-2 receptor agonist neurokinin A (=NKA; 0.1 μmol/l) and the contractions of the preparations caused thereby were measured as contractility in mN (=preliminary value) measured. Then NKA was rinsed out of the preparations with NKA-free solution and the test substances were added in a concentration of 10^−7 mol/l. After two hours' incubation of the preparations with the test substances, the contractions of the preparations then still caused by renewed NKA addition were again measured and the results were given as percentages, relative to the contractions initially measured, caused solely by NKA addition. The concentration of the test substances was increased iteratively in the subsequent experiments as a function of the result in logarithmic whole or half steps, until at least one concentration above or below 50% inhibition of contraction was determined (up to at most 10^−5 mol/l). For each concentration, the average value of inhibition of contraction was calculated from 2 to 4 preparations. In each case, the concentration of half-maximum inhibition (IC50) per test substance was calculated as characteristic variable. In each case the logarithmised value of the IC50 per test substance is given as pIC50 in [mol/l].

NK-2 receptors [2] = molecular target: T2, NK-2 receptors; assay: NK-2-receptor-antagonistic effectiveness in vivo in anaesthetised guinea pigs (NKA test stimulus); set-up: species or system guinea pig; settings: for ED50: guinea pig
Excerpt: 3. Determination of the NK-2-receptor-antagonistic Effectiveness of the Test Substances in vivo
The NK-2- and NK-1-antagonistic activities of the test substances were investigated in anaesthetised guinea pigs in each case after intravenous (=i.v.) and oral (=p.o.) administration in vivio. With the present test model it is possible to detect both NK-2-antagonistic effects in three different organ systems (respiratory tracts, colon and circulation) and NK-1-antagonistic effects (rapid drop in blood pressure) in an animal simultaneously.
Pirbright-White guinea pigs of a body weight of 500-700 g were anaesthetised with ketamine/xylazine (67/13 mg/kg subcutaneously, initial dose, further doses administered as required). The animals were provided with an intravenous catheter in order to administer the substance and an intra-arterial catheter to measure the blood pressure. The animals were artificially ventilated via a tracheal cannula and the respiratory pressure was recorded by means of a pressure transducer. A balloon was introduced into the distal colon of the animals for manometric recording of colon motility by means of a pressure transducer. Blood pressure, heart rate, respiratory pressure and colonic pressure were measured continuously for each animal and plotted on a recorder and by means of a digital data-processing system. Neurokinin A (=NKA; 200 pmol/animal) was administered i.v. as a bolus as a test stimulus to stimulate the NK-1- and the NK-2 receptors. An addition of NKA of this type results in a great increase in respiratory pressure (bronchoconstriction) and colonic pressure, and in a biphasic drop in blood pressure. The first phase of hypotension (=phase of maximum hypotension within the first minute after administration of NKA) is mediated via NK-1 receptors, since they can be blocked completely by specific NK-1 receptor antagonists. The second phase of delayed hypotension (=phase of maximum hypotension after 2-5 min.) on the other hand is mediated via NK-2 receptors, since they can be blocked by specific NK-2 receptor antagonists. The doses of the test substances are given as ED50 values which each result in a response to the NKA test stimulus which is reduced to 50% of the initial value, as characteristic variables for the individual measurement parameters bronchoconstriction, colonic pressure and change in blood pressure mediated by NK-1 or NK-2.
The antagonistic effects of the test substances were first investigated in cumulative form, the time of the NKA test stimulus being 1 min. after the administration of the respective doses of the test substances had ended. These ED50 values obtained from cumulative dose effect curves are plotted in Table 2 below. In order additionally to detect the variation over time of the antagonistic effects of the test substances, the action of the NKA test stimulus was determined at different times (1, 30, 60, 90, 120, 150 and 180 min.) after administration of the test substances.

| Ki (human NK-2 receptor) [nM] | IC50 (NK-2 receptors [1]) [nM] | ED50 (NK-2 receptors [2]; iv, cumulative dosing, NKA stimulus 1 min. after administration, respiratory resistance (bronchoconstriction), read-out: ED50 Respiratory resistance, i.v. after 1 min. (cumulative)) [µmol/kg] | ED50 (NK-2 receptors [2]; iv, cumulative dosing, NKA stimulus (200 pmol/animal i.v.) 1 min. after administration, colonic pressure, read-out: ED50 Colonic pressure, i.v. after 1 min. (cumulative)) [µmol/kg] | ED50 (NK-2 receptors [2]; iv, from AUC of antagonistic effect over 120 min after administration, colonic pressure, read-out: ED50 Colonic pressure, i.v. AUC over 120 min) [µmol/kg] | ED50 (NK-2 receptors [2]; iv, from AUC over 120 min after administration, respiratory resistance, read-out: ED50 Respiratory resistance, i.v. AUC over 120 min) [µmol/kg] | ED50 (NK-2 receptors [2]; po, from AUC over 180 min after administration, colonic pressure, read-out: ED50 Colonic pressure, p.o. AUC over 180 min.) [µmol/kg] | ED50 (NK-2 receptors [2]; po, from AUC over 180 min after administration, respiratory resistance, read-out: ED50 Respiratory resistance, p.o. AUC over 180 min.) [µmol/kg] | SMILES | NK-2-receptor-antagonistic activity of colon motility, late drop in blood pressure and respiratory resistance (in words) (NK-2 receptors [2]; cumulative administration i.v., antagonism detected 1 min. after administration had ended) | ED50 (NK-2 receptors [2]; iv, cumulative dosing, NKA stimulus 1 min. after administration, NK-2-mediated late drop in blood pressure, read-out: ED50 Blood pressure, i.v. after 1 min. (cumulative)) [µmol/kg] | ED50 (NK-2 receptors [2]; iv, from AUC over 120 min after administration, NK-2-mediated drop in blood pressure, read-out: ED50 Blood pressure, i.v. AUC over 120 min) [µmol/kg] | ED50 (NK-2 receptors [2]; po, from AUC over 180 min after administration, NK-2-mediated drop in blood pressure, read-out: ED50 Blood pressure, p.o. AUC over 180 min.) [µmol/kg] |
| --- | --- | --- | --- | --- | --- | --- | --- | --- | --- | --- | --- | --- |
| ≤ 10 | 0.2 | – | – | – | – | – | – | CN(CC(CCN1CCN(C(c2ccsc2)[C@@H](O)[C@H](O)[C@H](O)CO)CC1)c1ccc(Cl)c(Cl)c1)C(=O)c1ccccc1 (mixture of isomers) [Example 17] | – | – | – | – |
| ≤ 10 | 0.501 | – | – | – | – | – | – | CN(CC(CCN1CCN(C(c2ccsc2)[C@@H](O)[C@@H](O)[C@H](O)CO)CC1)c1ccc(Cl)c(Cl)c1)C(=O)c1ccccc1 (mixture of isomers) [Example 9] | – | – | – | – |
| ≤ 10 | 0.251 | – | – | – | – | – | – | CN(CC(CCN1CCN(C(c2ccsc2)[C@H](O)[C@@H](O)[C@H](O)CO)CC1)c1ccc(Cl)c(Cl)c1)C(=O)c1ccccc1 (mixture of isomers) [Example 7] | – | – | – | – |
| ≤ 10 | – | 0.079 | 0.041 | 0.009 | 0.042 | 4.5 | 3.2 | CN(C[C@@H](CCN1CCN(C(c2ccsc2)[C@H](O)[C@H](O)CO)CC1)c1ccc(Cl)c(Cl)c1)C(=O)c1ccccc1 (stereo partly drawn) [Example 15, N-((2S)-2-(3,4-dichlorophenyl)-4-{4[(2S,3R)-2,3,4-trihydroxy-1-(3-thienyl)butyl]-1-piperazinyl}-butyl)-N-methylbenzamide] | marked NK-2-receptor-antagonistic activity | 0.114 | 0.047 | 8.6 |
